# Structures can show the parent of a compound that is named as a salt.
# How the values were obtained:
# Type in all cases: biochemical
# Details in all cases: FDA-approved drug screen; compared to DMSO
# recombinant PRL-1 = biological target: T1, recombinant PRL-1 (Homo sapiens, UniProt Q93096); experiment: In vitro phosphatase assay (DiFMUP hydrolysis), PRL-1; also: test concentration or dose not given here
# T1 construct: 6xHis (N, cleaved yes); made in house; host or cells: E. coli One Shot BL21 Star
# T1 sequence (Q93096 1-173): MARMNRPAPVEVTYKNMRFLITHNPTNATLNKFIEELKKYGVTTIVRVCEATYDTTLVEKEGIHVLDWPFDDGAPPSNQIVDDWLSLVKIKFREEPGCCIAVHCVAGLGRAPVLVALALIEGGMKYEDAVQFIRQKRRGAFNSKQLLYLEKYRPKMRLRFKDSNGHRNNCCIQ
# recombinant PRL-2 = biological target: T2, recombinant PRL-2 (Homo sapiens, UniProt Q12974); experiment: In vitro phosphatase assay (DiFMUP hydrolysis), PRL-2;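 also: PRL-2 activity read as DiFMUP hydrolysis after 20 min at room temperature with drug, enzyme first pre-reduced at 4 °C for 20 min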
# T2 construct: 6xHis (N, cleaved yes); made in house; host or cells: E. coli One Shot BL21 Star
# T2 sequence (Q12974 1-167): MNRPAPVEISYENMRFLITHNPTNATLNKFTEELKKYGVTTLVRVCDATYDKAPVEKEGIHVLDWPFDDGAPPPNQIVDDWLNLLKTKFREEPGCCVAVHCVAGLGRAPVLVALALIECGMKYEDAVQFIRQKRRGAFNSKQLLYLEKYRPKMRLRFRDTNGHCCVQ
# recombinant PRL-3 = biological target: T3, recombinant PRL-3 (Homo sapiens, UniProt O75365); experiment: In vitro phosphatase assay (DiFMUP hydrolysis), PRL-3; also: test concentration or dose not given here
# T3 construct: 6xHis (N, cleaved yes); made in house; host or cells: E. coli One Shot BL21 Star
# T3 sequence (O75365 whole entry): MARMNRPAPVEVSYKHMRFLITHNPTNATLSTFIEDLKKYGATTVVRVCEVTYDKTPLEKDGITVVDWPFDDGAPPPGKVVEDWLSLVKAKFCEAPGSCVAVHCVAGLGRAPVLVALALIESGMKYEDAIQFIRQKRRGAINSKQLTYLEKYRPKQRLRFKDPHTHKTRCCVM
Compound,% Phosphatase Activity (compared to DMSO) PRL-1 (recombinant PRL-1),% Phosphatase Activity (compared to DMSO) PRL-2 (recombinant PRL-2),% Phosphatase Activity (compared to DMSO) PRL-3 (recombinant PRL-3)
Cc1nc2n(c(=O)c1CCN1CCC(c3noc4cc(F)ccc34)CC1)CCCC2O (stereo not drawn) [Paliperidone],102%,103%,75%
O=C1c2cccc3c2[C@H](CCC3)CN1[C@@H]1CN2CCC1CC2 [Palonosetron HCl],90%,96%,117%
NCCC(O)(P(=O)([O-])O)P(=O)([O-])O.[Na+].[Na+] [Pamidronate Disodium],98%,80%,91%
Cc1[nH]c2ccccc2c1CCNCc1ccc(/C=C/C(=O)NO)cc1 [Panobinostat (LBH589)],95%,102%,83%
COc1ccnc(C[S+]([O-])c2nc3ccc(OC(F)F)cc3[nH]2)c1OC (stereo not drawn) [Pantoprazole sodium],97%,98%,88%
CCC(=O)NS(=O)(=O)c1ccc(-c2c(-c3ccccc3)noc2C)cc1 [Parecoxib],98%,84%,74%
NC[C@@H]1O[C@H](O[C@H]2[C@@H](O)[C@H](O[C@@H]3[C@@H](O)[C@H](N)C[C@H](N)[C@H]3O[C@H]3O[C@H](CO)[C@@H](O)[C@H](O)[C@H]3N)O[C@@H]2CO)[C@H](N)[C@@H](O)[C@@H]1O [Paromomycin Sulfate],93%,110%,112%
Cl.Fc1ccc([C@@H]2CCNC[C@H]2COc2ccc3c(c2)OCO3)cc1 [Paroxetine HCl],90%,128%,95%
NNC(=O)c1ccncc1.Nc1ccc(C(=O)O)c(O)c1 [Pasiniazid],91%,97%,82%
Cc1ccc(Nc2nccc(N(C)c3ccc4c(C)n(C)nc4c3)n2)cc1S(N)(=O)=O.Cl [Pazopanib HCl],86%,83%,82%
Cc1ccc(Nc2nccc(N(C)c3ccc4c(C)n(C)nc4c3)n2)cc1S(N)(=O)=O [Pazopanib],97%,100%,89%
CCOc1cc2ncc(C#N)c(Nc3ccc(F)c(Cl)c3)c2cc1NC(=O)/C=C/CN(C)C [Pelitinib (EKB-569)],111%,120%,97%
Nc1nc2[nH]cc(CCc3ccc(C(=O)N[C@@H](CCC(=O)O)C(=O)O)cc3)c2c(=O)[nH]1 [Pemetrexed],92%,86%,98%
Cc1cccn2c(=O)c(-c3nnn[nH]3)cnc12 [Pemirolast potassium],330%,301%,195%
Nc1nc2c(ncn2CCC(CO)CO)c(=O)[nH]1 [Penciclovir],98%,95%,74%
OC1(c2ccc(Cl)c(C(F)(F)F)c2)CCN(CCCC(c2ccc(F)cc2)c2ccc(F)cc2)CC1 [Penfluridol],100%,128%,89%
CC(C)(S)[C@@H](N)C(=O)O [Penicillamine],85%,100%,97%

Compound,% Phosphatase Activity (compared to DMSO) PRL-1 (recombinant PRL-1),% Phosphatase Activity (compared to DMSO) PRL-2 (recombinant PRL-2),% Phosphatase Activity (compared to DMSO) PRL-3 (recombinant PRL-3)
N=C(N)c1ccc(OCCCCCOc2ccc(C(=N)N)cc2)cc1 [Pentamidine],113%,116%,95%
CC(=O)CCCCn1c(=O)c2c(ncn2C)n(C)c1=O [Pentoxifylline],85%,92%,92%
N#Cc1ccccc1-c1cc(-c2ccccn2)cn(-c2ccccc2)c1=O [Perampanel],488%,376%,451%
CCCN1C[C@H](CSC)C[C@@H]2c3cccc4[nH]cc(c34)C[C@H]21 [Pergolide mesylate],109%,119%,90%
CCC[C@H](N[C@@H](C)C(=O)N1[C@H](C(=O)O)C[C@@H]2CCCC[C@@H]21)C(=O)OCC [Perindopril Erbumine],88%,84%,96%
FC(F)(F)c1ccc(CNc2ccc(Cc3c[nH]c4ncc(Cl)cc34)cn2)cn1 [Pexidartinib (PLX3397)],102%,100%,101%
Cc1ccc(-n2nc(C(C)(C)C)cc2NC(=O)NCc2cc(F)ccc2Oc2ccc3c(cnn3CCO)c2)cc1 [Pexmetinib (ARRY-614)],106%,103%,117%
Nc1ccc(/N=N/c2ccccc2)c(N)n1 [Phenazopyridine HCl],64%,61%,55%
[H]/N=C(/N)N/C(=N/[H])NCCc1ccccc1 [Phenformin HCl],114%,120%,89%
O=C1c2ccccc2C(=O)C1c1ccccc1 [Phenindione],93%,100%,84%
CN(C)CCC(c1ccccc1)c1ccccn1 (stereo not drawn) [Pheniramine Maleate],98%,104%,70%
CC(COc1ccccc1)N(CCCl)Cc1ccccc1 (stereo not drawn) [Phenoxybenzamine HCl],106%,112%,81%
Cc1ccc(N(CC2=NCCN2)c2cccc(O)c2)cc1 [Phentolamine Mesylate],92%,117%,90%
CCCCC1C(=O)N(c2ccccc2)N(c2ccccc2)C1=O [Phenylbutazone],104%,84%,81%
CNC[C@H](O)c1cccc(O)c1 [Phenylephrine HCl],103%,98%,85%
O=C1NC(=O)C(c2ccccc2)(c2ccccc2)N1 [Phenytoin sodium],100%,100%,68%
CC(=O)NS(=O)(=O)c1ccc(NC(=O)c2ccccc2C(=O)O)cc1 [Phthalylsulfacetamide],104%,120%,101%

# Source: PMC8119466, “A screen of FDA-approved drugs identifies inhibitors of protein tyrosine phosphatase 4A3 (PTP4A3 or PRL-3)” (Scientific Reports, 2021)
